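All cell lines were grown in 96-well plates and treated with compound for 48 hours. Here, GI50 denotes the concentration required for 50% inhibition of growth.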 Active and inactive are the calls of the source. Cut-off read from the data, not from the text of the source: active = GI50 up to about 1.1 µM and inactive = higher.
Tests used:
Assay in all cases: NCI tumour cell line growth inhibition, 48 h
IGROV-1 = tested on: IGROV-1
NCI/ADR-RES = tested on: NCI/ADR-RES
OVCAR-4 = tested on: OVCAR-4
A498 = tested on: A498
HCC 2998 = tested on: HCC 2998
UO-31 = tested on: UO-31
NCI-H522 = tested on: NCI-H522
RPMI-8226 = tested on: RPMI-8226
COLO 205 = tested on: COLO 205
MOLT-4 = tested on: MOLT-4
M14 = tested on: M14
UACC-257 = tested on: UACC-257
HT-29 = tested on: HT-29
CCRF-CEM = tested on: CCRF-CEM
ACHN = tested on: ACHN
KM12 = tested on: KM12
CAKI-1 = tested on: CAKI-1
SF-539 = tested on: SF-539
NCI-H460 = tested on: NCI-H460
RXF 393 = tested on: RXF 393

Row | Compound | GI50 (IGROV-1) | GI50 (NCI/ADR-RES) | GI50 (OVCAR-4) | GI50 (A498) | GI50 (HCC 2998) | GI50 (UO-31) | GI50 (NCI-H522) | GI50 (RPMI-8226) | GI50 (COLO 205) | GI50 (MOLT-4) | GI50 (M14) | GI50 (UACC-257) | GI50 (HT-29) | GI50 (CCRF-CEM) | GI50 (ACHN) | GI50 (KM12) | GI50 (CAKI-1) | GI50 (SF-539) | GI50 (NCI-H460) | GI50 (RXF 393)
1 | C/C(=N\NC(N)=O)C(CN1CCOCC1)C(c1ccccc1)c1c(O)c2ccccc2oc1=O (configuration not stated) | > 100 µM (inactive) | > 100 µM (inactive) | > 100 µM (inactive) | 8.63 µM (inactive) | > 100 µM (inactive) | > 100 µM (inactive) | > 100 µM (inactive) | > 100 µM (inactive) | > 100 µM (inactive) | > 100 µM (inactive) | > 100 µM (inactive) | > 100 µM (inactive) | > 100 µM (inactive) | > 100 µM (inactive) | > 100 µM (inactive) | > 100 µM (inactive) | > 100 µM (inactive) | > 100 µM (inactive) |  | 
2 | O=[N+]([O-])c1ccc2sc(/C=N/c3cnccn3)cc2c1 | 58.3 µM (inactive) | 70.3 µM (inactive) |  | 27.4 µM (inactive) | 18.7 µM (inactive) | 24.1 µM (inactive) | 32.5 µM (inactive) | 16 µM (inactive) | 39.8 µM (inactive) | 10.7 µM (inactive) | 37.2 µM (inactive) | 27.8 µM (inactive) | 39.2 µM (inactive) | 13.7 µM (inactive) | 30.9 µM (inactive) | 57.5 µM (inactive) | 57.3 µM (inactive) | 31.6 µM (inactive) | 31 µM (inactive) | 0.597 µM (active)
3 | COC(=O)C1(C)CCCC2(C)c3cc(OC)ccc3C(=O)C(Br)C12 (configuration not stated) | > 10 µM (inactive) | > 10 µM (inactive) |  | > 10 µM (inactive) | > 10 µM (inactive) | 1.84 µM (inactive) | 2.86 µM (inactive) | 2.24 µM (inactive) | 2.63 µM (inactive) | 1.75 µM (inactive) | 3.35 µM (inactive) | > 10 µM (inactive) | 4.75 µM (inactive) | 2.29 µM (inactive) |  | > 10 µM (inactive) | 4.05 µM (inactive) | > 10 µM (inactive) | > 10 µM (inactive) | 9.23 µM (inactive)
4 | COC(=O)Cc1c2n(c3ccccc13)C(=O)N1c3ccccc3C(CC(=O)OC)C21 (configuration not stated) | 7.41 µM (inactive) | 53.1 µM (inactive) | 10.7 µM (inactive) | 39.9 µM (inactive) | 68.1 µM (inactive) | 54.5 µM (inactive) | 62.1 µM (inactive) | > 100 µM (inactive) | 87.3 µM (inactive) | > 100 µM (inactive) |  | > 100 µM (inactive) | > 100 µM (inactive) | > 100 µM (inactive) | 24.4 µM (inactive) |  | 21.1 µM (inactive) | 16.1 µM (inactive) | 11.6 µM (inactive) | 21.2 µM (inactive)
5 | CC(=O)c1cccc(NC(=O)C(=O)c2c(O)oc3ccccc3c2=O)c1 | > 100 µM (inactive) | > 100 µM (inactive) | > 100 µM (inactive) | > 100 µM (inactive) | > 100 µM (inactive) | > 100 µM (inactive) | > 100 µM (inactive) | > 100 µM (inactive) |  | > 100 µM (inactive) | > 100 µM (inactive) | > 100 µM (inactive) | > 100 µM (inactive) | > 100 µM (inactive) | > 100 µM (inactive) | > 100 µM (inactive) | > 100 µM (inactive) | > 100 µM (inactive) | > 100 µM (inactive) | > 100 µM (inactive)
6 | CN(C)c1n2c3cc([N+](=O)[O-])ccc3[n+]3c(N(C)C)n4ccccc4c3c2c2cccc[n+]12.[O-][Cl+3]([O-])([O-])[O-].[O-][Cl+3]([O-])([O-])[O-] | > 100 µM (inactive) | > 100 µM (inactive) | > 100 µM (inactive) | > 100 µM (inactive) | > 100 µM (inactive) | > 100 µM (inactive) | 34.9 µM (inactive) | > 100 µM (inactive) | > 100 µM (inactive) | > 100 µM (inactive) | > 100 µM (inactive) | > 100 µM (inactive) | > 100 µM (inactive) | > 100 µM (inactive) | > 100 µM (inactive) | > 100 µM (inactive) | > 100 µM (inactive) |  | > 100 µM (inactive) | > 100 µM (inactive)
7 | Oc1ccc(/C=C/c2cc(O)cc3c2C(c2cc(O)cc(O)c2)C(c2ccc(O)c(O)c2)O3)cc1 (configuration not stated) | 31.4 µM (inactive) | 31.8 µM (inactive) | 16.8 µM (inactive) | 33.5 µM (inactive) | 25.4 µM (inactive) | 30.9 µM (inactive) | 27 µM (inactive) | 13.5 µM (inactive) | 19.5 µM (inactive) | 11.6 µM (inactive) | 31.9 µM (inactive) | 25.3 µM (inactive) | 17.6 µM (inactive) | 8.34 µM (inactive) | 15 µM (inactive) | 25.6 µM (inactive) | 31.7 µM (inactive) | 34.4 µM (inactive) |  | 41.3 µM (inactive)
8 | CC1=NNC(=S)NCCCN2CCN(CCCNC(=S)NN=C(C)C=NNC(=S)NCCCN3CCN(CCCNC(=S)NN=C1)CC3)CC2 | > 100 µM (inactive) | > 100 µM (inactive) | > 100 µM (inactive) | > 100 µM (inactive) | > 100 µM (inactive) | > 100 µM (inactive) | > 100 µM (inactive) | > 100 µM (inactive) | > 100 µM (inactive) | > 100 µM (inactive) | > 100 µM (inactive) | > 100 µM (inactive) | > 100 µM (inactive) | > 100 µM (inactive) | > 100 µM (inactive) | > 100 µM (inactive) | > 100 µM (inactive) | > 100 µM (inactive) |  | > 100 µM (inactive)
9 | COC(=O)Cc1cccc2c1CCC2=O | > 100 µM (inactive) | > 100 µM (inactive) | > 100 µM (inactive) | > 100 µM (inactive) | > 100 µM (inactive) | > 100 µM (inactive) | > 100 µM (inactive) | > 100 µM (inactive) | > 100 µM (inactive) | > 100 µM (inactive) | > 100 µM (inactive) | > 100 µM (inactive) | > 100 µM (inactive) | > 100 µM (inactive) | > 100 µM (inactive) | > 100 µM (inactive) |  | > 100 µM (inactive) | > 100 µM (inactive) | > 100 µM (inactive)
10 | N=C(N)NS(=O)(=O)c1ccc(NCc2cccc3c(=O)c4ccc(Cl)cc4oc23)cc1 | 3.43 µM (inactive) | 7.8 µM (inactive) | > 11.2 µM (inactive) | > 9.02 µM (inactive) | > 15.3 µM (inactive) | 5.41 µM (inactive) |  | 4.61 µM (inactive) | > 11.6 µM (inactive) | 3.57 µM (inactive) | 6.7 µM (inactive) | 11.1 µM (inactive) | 5.71 µM (inactive) | 1.82 µM (inactive) | 7.6 µM (inactive) | 3.25 µM (inactive) | 8.53 µM (inactive) | 6.11 µM (inactive) | 3.15 µM (inactive) | 3.08 µM (inactive)
11 | COC(=O)CCc1cc(OC)c2c(c1)[C@H](C(=O)OC)[C@@H](c1ccc(O)c(OC)c1)O2 | 61.8 µM (inactive) | 40.9 µM (inactive) | 84.1 µM (inactive) | 31.5 µM (inactive) | 21.4 µM (inactive) | 52.1 µM (inactive) | 38.3 µM (inactive) | 17.6 µM (inactive) | 41.2 µM (inactive) | 24.7 µM (inactive) | 38.3 µM (inactive) | > 100 µM (inactive) | 36.2 µM (inactive) | 33.8 µM (inactive) | 86.5 µM (inactive) | 30.6 µM (inactive) |  | 48.2 µM (inactive) | 37.8 µM (inactive) | 55.8 µM (inactive)
12 | COC(=O)C1(Cc2ccccc2)Cc2c(C)ccc(C)c2C1=O (configuration not stated) | 36.7 µM (inactive) | 28.1 µM (inactive) | 32.4 µM (inactive) | 46.8 µM (inactive) | 28 µM (inactive) | 10.8 µM (inactive) | 19.2 µM (inactive) | 29 µM (inactive) | 12.4 µM (inactive) | 18.7 µM (inactive) | 25.1 µM (inactive) | 25.8 µM (inactive) | 19.8 µM (inactive) | 34.8 µM (inactive) | 26.9 µM (inactive) | 13.8 µM (inactive) |  | 39.9 µM (inactive) | 31.9 µM (inactive) | 21.8 µM (inactive)
13 | CC1=C/C(=N/N2C(=O)/C(=C/c3ccc(Cl)cc3)N=C2c2ccccc2)CC(C)(C)C1 | 52.1 µM (inactive) | 60.7 µM (inactive) | 45.9 µM (inactive) | > 100 µM (inactive) | > 100 µM (inactive) | > 100 µM (inactive) | 30 µM (inactive) | 20.9 µM (inactive) | > 100 µM (inactive) | 25 µM (inactive) | > 100 µM (inactive) | 69.2 µM (inactive) | 70.5 µM (inactive) |  | > 100 µM (inactive) | 51.1 µM (inactive) | > 100 µM (inactive) | 47.1 µM (inactive) | > 100 µM (inactive) | 91.6 µM (inactive)
14 | CN(C)c1ccc(C=c2c3cc(O)ccc3n3c2cc(-c2ccccc2)[n+]3C)cc1 | 0.281 µM (active) | 36.1 µM (inactive) | 3.28 µM (inactive) | 4.47 µM (inactive) | 2.22 µM (inactive) | 2.93 µM (inactive) | 0.337 µM (active) | 0.282 µM (active) | 0.452 µM (active) | 3.27 µM (inactive) | 1.51 µM (inactive) | 1.08 µM (active) | 1.69 µM (inactive) | 0.656 µM (active) | 7.78 µM (inactive) | 1.06 µM (active) | 8.63 µM (inactive) |  |  | 1.53 µM (inactive)
